Test results reported in patent publication US20260226022A1, “CRYSTAL FORM AND USE OF PARP7 INHIBITOR AND SALT THEREOF” (QILU PHARMACEUTICAL CO., LTD., priority 2023, published 2026).
“Also recorded” adds a separate entry of the source.

Legend:
[1] = In vivo pharmacokinetic determination in mice (intravenous bolus and oral); design: species or system C57BL/6 mice
[2] = In vivo pharmacokinetic determination in rats (intravenous bolus and oral); design: species or system SD rats
Excerpt: To study the in vivo plasma pharmacokinetic behavior of the compounds of the present application after single intravenous bolus injection and oral administration, using male C57BL/6 mice or SD male rats as tested animals.
Healthy adult C57BL/6 mice or SD rats (3 rats/group), male, from Shanghai Jihui Laboratory Animal Breeding Co., Ltd. and Charles River Laboratories Co., Ltd.
The intravenous bolus injection and oral groups were consisted of 3 mice or rats, and the dose of intravenous bolus injection was 1 mg/kg in a volume of 5 mL/kg, and the dose of oral administration was 5 mg/kg in a volume of 10 mL/kg. The solvent was 5% DMSO/5% Kolliphor HS15/90% Saline.
After the animals were administered, 0.02 mL of blood was collected intravenously at 0.0833(IV), 0.25, 0.5, 1, 2, 4, 8, and 24 hours. Blood was placed in EDTA-K2 tubes, centrifuged at 4° C. and 4600 rpm for 5 min to separate the plasma, and stored at −80° C.
1) 10 μL of plasma sample was precipitated by adding 200 μL of acetonitrile, vortexed and mixed, and centrifuged for 15 min.
2) The supernatant after treatment was diluted with water, and then analyzed for the concentration of the tested compounds by LC/MS/MS.
• Liquid phase conditions: Shimadzu LC-30AD; • Mass spectrometry conditions: AB Sciex API 5500; • Chromatographic column: Phenomenex Kinetex 2.6 μm C18; • Mobile phase: A: 5 mM ammonium acetate aqueous solution (containing 0.05 vol % of formic acid); B: acetonitrile (containing 0.1 vol % of formic acid) flow rate: 0.5 mL/min;
Pharmacokinetic parameters were calculated using WinNonlin 8.0 and the pharmacokinetic parameters of the drugs administered intravenously and orally to mice or rats are shown in Tables 17 and 18 below. Wherein, “Dose” denotes the administered dose, “CL” denotes the plasma clearance, “Vss” denotes the volume of distribution at steady state of the drug, “T1/2” denotes the half-life of the drug, “AUC” denotes the area under the concentration-time curve. “Cmax” denotes the peak drug concentration, and “F” indicates bioavailability.

[3] = Influence factor tests (stability at temperature, humidity, light; HPLC purity and XRPD); format: physicochemical
Protocol: The purity was assayed using HPLC and the crystal form was assayed using XRPD on day 0, 2 and 7, and the experimental results are shown in Table 11.
The purity was assayed using HPLC and the crystal form was assayed using XRPD on day 0, 5 and 10, and the experimental results are shown in Table 12.

[4] = Hygroscopicity test by dynamic vapor sorption (DVS); format: physicochemical; details: for Hygroscopicity evaluation: Chinese Pharmacopoeia 2020 classes; for Weight gain at 80% RH / Weight gain at 90% RH: DVS, 25° C.; for Crystal form after DVS: XRPD before and after the DVS test
Protocol: The moisture adsorption of the sample was determined using a dynamic vapor sorption instrument from DVS Intrinsic. The sample was placed in a tared sample basket and weighed by the instrument automatically and analyzed according to the parameters in Table 10.

PARP7 = biological target: T1, PARP7 (Homo sapiens, UniProt Q7Z3E1); assay: PARP7 in vitro enzymatic assay; format: biochemical
T1 sequence (Q7Z3E1 1-657): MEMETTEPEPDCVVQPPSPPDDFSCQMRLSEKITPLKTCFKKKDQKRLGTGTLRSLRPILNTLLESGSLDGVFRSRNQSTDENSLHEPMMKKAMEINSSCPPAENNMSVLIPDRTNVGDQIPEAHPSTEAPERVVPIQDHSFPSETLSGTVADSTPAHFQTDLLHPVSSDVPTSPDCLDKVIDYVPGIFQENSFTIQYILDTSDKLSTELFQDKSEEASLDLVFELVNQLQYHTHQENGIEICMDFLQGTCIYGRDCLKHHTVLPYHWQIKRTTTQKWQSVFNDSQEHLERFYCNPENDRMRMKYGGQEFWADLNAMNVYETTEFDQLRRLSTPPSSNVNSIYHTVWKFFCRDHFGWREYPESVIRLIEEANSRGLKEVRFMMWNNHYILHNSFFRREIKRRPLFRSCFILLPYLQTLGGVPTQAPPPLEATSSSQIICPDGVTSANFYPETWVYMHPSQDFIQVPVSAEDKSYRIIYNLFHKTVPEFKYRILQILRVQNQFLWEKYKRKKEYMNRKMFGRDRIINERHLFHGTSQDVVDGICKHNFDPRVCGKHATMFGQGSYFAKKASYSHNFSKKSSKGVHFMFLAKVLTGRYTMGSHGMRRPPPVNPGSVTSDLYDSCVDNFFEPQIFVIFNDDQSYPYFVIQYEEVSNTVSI
Protocol: In this experiment, the inhibitory effect of the compound of formula (I) on PARP7 enzyme activity was tested by serial dilution of the tested compounds and assayed in replicates. 1. A histone-coated 384-well plate was prepared by adding 25 μL of histone solution to each well and incubating at 4° C. overnight. 2. PBST buffer, blocking buffer and assay buffer were prepared. 3. The histone-coated 384-well plate was washed 3 times using PBST buffer. Blocking was performed at room temperature for 1 hour using 50 μL of blocking buffer. The plate was washed 3 times using PBST buffer. 4. Compound preparation: A 2000× compound was prepared in a 96-well source plate. 50 nL of the compound was transferred from the source plate to a 96-well intermediate plate. Each well was supplemented with 39.95 μL of assay buffer. The plate was shaken well and centrifuged at 1000 rpm for 1 minute. 5 μL of the compound in DMSO was transferred to each well. 5. Enzymatic reaction: An enzyme mixture was incubated at 25° C. for 10 minutes. 10 μL of the enzyme mixture was added and incubated with the compound for 10 minutes at room temperature. 10 μL of assay buffer was added to the negative control wells of the assay plate. 10 μL of 2.5× Biotin-NAD+ was added to each well, followed by incubation at 25° C. for 60 min. […] The plate was immediately read using Paradigm and detected for reads at Ex550/Em620. […]

[5] = male, mouse, plasma, C57BL/6 mice, intravenous, 1 mg/kg
[6] = male, mouse, plasma, C57BL/6 mice, oral, 5 mg/kg
[7] = male, rat, plasma, SD rats, intravenous, 1 mg/kg
[8] = male, rat, plasma, SD rats, oral, 5 mg/kg

C[C@@H](COCCC(=O)N1CCN(c2ncc(C(F)(F)F)cn2)CC1)Nc1cn[nH]c(=O)c1C(F)(F)F [RBN-2397]
F ([1]; C57BL/6 mice, oral, 5 mg/kg): 14%
AUC [1, 5]: 0.288 µg·h/mL
clearance [1, 5]: 3.4 L/h/kg
Vd ([1]; male, mouse, plasma, C57BL/6 mice, intravenous, 1 mg/kg, read-out: Vss): 0.6 L/kg
AUC [1, 6]: 0.203 µg·h/mL
Cmax [1, 6]: 0.612 µg/mL
F ([2]; SD rats, oral, 5 mg/kg): 27%
AUC [2, 7]: 0.193 µg·h/mL
clearance [2, 7]: 5.1 L/h/kg
half-life [2, 7]: 12 min
Vd ([2]; male, rat, plasma, SD rats, intravenous, 1 mg/kg, read-out: Vss): 1.2 L/kg
AUC [2, 8]: 0.264 µg·h/mL
Cmax [2, 8]: 0.319 µg/mL

O=C(OCCc1c[nH]c(=O)c(C(F)(F)F)c1)N1CCN(c2ncc(C(F)(F)F)cn2)CC1.[Na+] [Crystal form I]
Purity (Area %) ([3]; 25° C./75% RH, day 5): 99.69% Area %
Purity (Area %) ([3]; 25° C./75% RH, day 10): 99.72% Area %
Purity (Area %) ([3]; 25° C./90% RH, day 5): 99.71% Area %
Purity (Area %) ([3]; 25° C./90% RH, day 10): 99.74% Area %
Purity (Area %) ([3]; 40° C., day 5): 99.71% Area %
Purity (Area %) ([3]; 40° C., day 10): 99.70% Area %
Purity (Area %) ([3]; 60° C., day 5): 99.72% Area %
Purity (Area %) ([3]; 60° C., day 10): 99.67% Area %
Purity (Area %) ([3]; Light exposure, day 5): 99.67% Area %
XRPD ([3]; Light exposure, day 5): Crystal form I
Purity (Area %) ([3]; Light exposure, day 10): 99.61% Area %
Purity (Area %) ([3]; T0, day 0): 99.69% Area %
Physicochemical stability (conclusion in words) ([3]; high humidity): a transformation of the crystal occurs under high humidity conditions
Physicochemical stability (conclusion in words) ([3]; high temperature): physicochemical stable at high temperature
Hygroscopicity evaluation [4]: Hygroscopic (hygroscopic weight gain of less than 15.0% but not less than 2.0%)
Hygroscopicity evaluation ([4]; listed as crystal form I): had hygroscopicity; also recorded: slightly hygroscopic
Weight gain at 80% RH [4]: 13.29%
Weight gain at 80% RH ([4]; listed as crystal form I): 13.29%
Weight gain at 90% RH [4]: 13.77%

O=C(OCCc1c[nH]c(=O)c(C(F)(F)F)c1)N1CCN(c2ncc(C(F)(F)F)cn2)CC1 [Compound of formula (I), 2-(6-oxo-5-(trifluoromethyl)-1,6-dihydropyridin-3-yl)ethyl-4-(5-(trifluoromethyl)pyrimidin-2-yl) piperazine-1-carboxylate]
F ([1]; C57BL/6 mice, oral, 5 mg/kg): 80%
Exposure in plasma compared with control compound RBN-2397 ([1]; mouse plasma, same dose, intravenous bolus injection and oral administration): significantly higher exposure
Inhibition of PARP7 enzyme activity (conclusion in words) (PARP7): can effectively inhibit PARP7 enzyme activity
F ([2]; SD rats, oral, 5 mg/kg): 47%
Exposure in plasma compared with control compound RBN-2397 ([2]; rat plasma, same dose, intravenous bolus injection and oral administration): significantly higher exposure

O=C(OCCc1c[nH]c(=O)c(C(F)(F)F)c1)N1CCN(c2ncc(C(F)(F)F)cn2)CC1 [Crystal form IV]
Purity (Area %) ([3]; 40° C./75% RH, day 2): 99.72 Area %
Purity (Area %) ([3]; 40° C./75% RH, day 7): 99.62 Area %
Purity (Area %) ([3]; 60° C., day 2): 99.73 Area %
Purity (Area %) ([3]; 60° C., day 7): 99.65 Area %
Purity (Area %) ([3]; T0, day 0): 99.73 Area %
Physicochemical stability (conclusion in words) ([3]; high humidity): relatively stable
Physicochemical stability (conclusion in words) ([3]; high temperature): relatively stable
Hygroscopicity evaluation ([4]; listed as crystal form IV): slight hygroscopicity; also recorded: slightly hygroscopic
Weight gain at 80% RH [4]: 1.07%
Weight gain at 80% RH ([4]; listed as crystal form IV): 1.07%
Weight gain at 90% RH [4]: 1.11%
Crystal form after DVS ([4]; listed as crystal form IV): no transformation of the crystal; also recorded: unchanged

O=C(OCCc1c[nH]c(=O)c(C(F)(F)F)c1)N1CCN(c2ncc(C(F)(F)F)cn2)CC1 [Crystal form X]
Hygroscopicity evaluation ([4]; listed as crystal form X): slight hygroscopicity
Weight gain at 80% RH ([4]; listed as crystal form X): 1.4%
Crystal form after DVS ([4]; listed as crystal form X): no transformation of the crystal
